Tests used:
[1] = Size and charge determination of nanoparticles (Zetasizer Nano ZS), Example 1; format: physicochemical
Description: Size and Charge Determination.

in vitro = format: cell-based; details: female, C57BL/6J, mouse
Protocol: Cell Culture of Bone Marrow-Derived Macrophages. […] After 7 days, the cells were transferred to tissue culture 96 well plates (Corning) at a density of 100,000 in 20 μL of medium and allowed to settle overnight for subsequent assays.
Lactate Dehydrogenase Release (LDH) Toxicity Assay. For determination of cytotoxicity, mature bone marrow-derived macrophages (BMDM) were treated with 20 μL of the lipids (concentrations denoted in figure legend) diluted in 20 mM HEPES buffer, with HEPES buffer as negative control and 10% Triton X-100 as positive control. After 24 hours, the 96 well plates were centrifuged at 200×g for 5 minutes to remove debris and 100 μL of media was transferred to an untreated flat-bottom 96 well plate. Next, 100 μL of LDH reaction reagent purchased from Cayman Chemical (Ann Arbor, MI) was added to each and allowed to sit for 30 minutes at 37° C. Absorbance at 490 and 680 nm were measured using a BioTek Synergy H1 plate reader and the data were processed using Microsoft Excel. Mean values from triplicates are shown for one of two independent experiments.

Question: Which results are given for `CCCCCCCCCCCCN(CCCCCCCCCCCC)c1nc(NCCCN)nc(NCCCN)n1` [Lipid 3]?
Answer: PDI ([1]; nanoparticles of pure lipid (Table 1)): 0.41 ± 0.02; Size ([1]; nanoparticles of pure lipid, 1 mM, 25° C. (Table 1)): 130 ± 2 nm; Charge ([1]; zeta potential, nanoparticles of pure lipid (Table 1)): 52 ± 3 mV; IC50 at 24 h (in vitro): 111 µM

— patent publication US20250361214A1, “TRIAZINE LIPIDS, LIPID SYNTHESIS, AND METHODS FOR INHIBITING CANONICAL NFKB TRANSCRIPTIONAL ACTIVITY” (University of Kentucky Research Foundation, priority 2022, published 2025)
